Laboratory results as given in patent publication US20240279278A1, “NMU RECEPTOR 2 AGONISTS” (Boehringer Ingelheim International GmbH, priority 2023, published 2024).
Converted amounts (≈) assume the structure as drawn. Residues, ends and D or L forms follow the SMILES beside them.

Legend:
[1] = physchem; assay type: physicochemical
Protocol: Example 6: Solubility Determination
Peptides (as TFA-salts) were weighed out in a filter unit (Mini-UniPrep Syringeless Filter 0.45 μm, Whatman PVDF), and 0.1 M phosphate buffer at pH 6 to 8 was added to achieve 10 mg/mL final peptide concentration. The peptides were dissolved by shaking the filter units horizontally at 350 rpm for 2 hours at room temperature. Samples were then filtered to remove any insoluble particles. Controls were prepared by weighing out the corresponding peptide solid material and dissolving it in an appropriate vehicle (e.g. buffer or DMSO) to a final concentration of 1 mg/mL. Both, the control and sample were analyzed by reversed phase chromatography. The area under the peak of the sample was compared to the control and the solubility was calculated based on that ratio. The pH was measured and recorded for each sample.

[2] = target: T1, human NMUR2 receptor (Homo sapiens, UniProt Q9GZQ4); assay: IP1 Gq HTRF assay, activation of human NMUR2 in buffer; assay type: cell-based; set-up: expressed in transfected cells; host or cells: CHO-K1; conditions: for EC50: CHO-K1 cells expressing human NMUR2, stimulation buffer with 0.1% BSA, read-out: EC50 (hNMUR2) buffer; for EC50 (hNMUR1)/EC50 (hNMUR2): selectivity for NMUR2 over NMUR1 from IP1 assay in buffer (Example 3)
Procedure, shortened: (§1)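 CHO-K1 cells stably expressing human NMUR1 or NMUR2, seeded 24 h before assay, stimulated with peptide agonists (8-point dose-response, 1% DMSO final) in HEPES/HBSS buffer with 50 mM LiCl and 0.1% BSA, pH 7.4, 1 h at 37 °C. IP1 accumulation read by HTRF competition (665/620 nm); EC50 from 4-parameter sigmoidal fit.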

[3] = target: T1, human NMUR2 receptor; assay: IP1 Gq HTRF assay, activation of human NMUR2 in human plasma; assay type: cell-based; set-up: expressed in transfected cells; host or cells: CHO-K1; conditions: CHO-K1 cells expressing human NMUR2, 100% human plasma; read-out: EC50 (hNMUR2) human plasma
Procedure, shortened: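 CHO-K1 cells stably expressing human NMUR2 exposed to peptide agonists (8-point dose-response) in 100% human plasma with 50 mM LiCl, 1% DMSO, for 1 h at 37° C. IP1 accumulation read by HTRF competition (665/620 nm ratio). EC50 from 4-parameter sigmoidal fit.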

[4] = target: T2, human NMUR1 receptor (Homo sapiens, UniProt Q9HB89); assay: IP1 Gq HTRF assay, activation of human NMUR1 in buffer; assay type: cell-based; conditions: CHO-K1 cells expressing human NMUR1, stimulation buffer with 0.1% BSA; read-out: EC50 (hNMUR1) buffer
T2 construct: expressed in transfected cells; host or cells: CHO-K1
T2 sequence (Q9HB89 1-426): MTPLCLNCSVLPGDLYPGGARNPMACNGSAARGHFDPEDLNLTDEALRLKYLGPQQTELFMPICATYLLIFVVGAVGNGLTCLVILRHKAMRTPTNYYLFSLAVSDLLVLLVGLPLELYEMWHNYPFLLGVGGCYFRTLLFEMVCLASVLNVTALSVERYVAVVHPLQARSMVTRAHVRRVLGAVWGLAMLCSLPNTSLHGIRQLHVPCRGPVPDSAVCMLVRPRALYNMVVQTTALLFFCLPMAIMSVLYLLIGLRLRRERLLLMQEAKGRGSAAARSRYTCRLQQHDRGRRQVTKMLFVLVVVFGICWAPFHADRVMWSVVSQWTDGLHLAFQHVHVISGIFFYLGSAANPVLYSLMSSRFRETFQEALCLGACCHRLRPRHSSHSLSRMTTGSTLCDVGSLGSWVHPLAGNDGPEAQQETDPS
Procedure, shortened: as §1

[5] = in vivo; set-up: species or system NMRI mice; conditions: male, NMRI, mouse, iv
Protocol: Example 5: Pharmacokinetics Intravenous (iv) PK in Mouse Pharmacokinetic parameters of the test compounds were determined after intravenous administration to Naval Medical Research Institute (NMRI) mice. Male NMRI mice were obtained either from Charles River (Germany) or from Janvier (France) weighing approximately 30 g to 40 g. Mice were housed in standard cages with light cycle of 12-hour dark and 12-hour light. Standardized food and water were offered ad libitum to the animals during the whole experimental period. The respective peptide was dissolved in 50 mM phosphate buffer (pH 7.4) containing 3.5% mannitol. Intravenous doses of 30 nmol/kg were given via a tail vein. Serial blood samples were collected from the vena saphena into tubes containing EDTA as anticoagulant at different time points up to 48 hours post dosing. After centrifugation for approximately 5 minutes, plasma samples were transferred to 96-well Polymerase Chain Reaction (PCR) plates, immediately frozen and kept at approximately −20° C. until analyzed for plasma concentration by liquid chromatography mass spectrometry (LC-MS/MS). Individual plasma concentration-time profiles were analyzed by a non-compartmental approach, and the resulting pharmacokinetic parameters were determined.

T1 sequence (Q9GZQ4 whole entry): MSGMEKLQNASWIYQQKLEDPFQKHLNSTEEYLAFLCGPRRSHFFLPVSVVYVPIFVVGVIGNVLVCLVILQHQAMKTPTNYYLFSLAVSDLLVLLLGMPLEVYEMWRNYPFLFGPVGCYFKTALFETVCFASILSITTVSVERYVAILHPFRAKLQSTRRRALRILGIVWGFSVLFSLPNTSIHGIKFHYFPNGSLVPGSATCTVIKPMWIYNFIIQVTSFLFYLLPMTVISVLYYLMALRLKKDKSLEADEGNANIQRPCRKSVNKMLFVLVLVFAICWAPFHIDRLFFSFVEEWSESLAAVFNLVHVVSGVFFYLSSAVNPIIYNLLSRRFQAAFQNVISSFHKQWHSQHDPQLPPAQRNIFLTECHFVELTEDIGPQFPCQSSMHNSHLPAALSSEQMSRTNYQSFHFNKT

SMILES | solubility at 2 h ([1]; pH 7.6) [µg/mL] | EC50 [2] [nM] | EC50 [3] [nM] | EC50 [4] [nM] | solubility at 2 h ([1]; pH 7.2) [µg/mL] | MRT [5] [h] | EC50 (hNMUR1)/EC50 (hNMUR2) [2]
CCCC[C@H](NC(=O)[C@H](CC(C)C)N(C)C(=O)[C@H](Cc1ccccc1)NC(=O)[C@H](Cc1ccc(O)cc1)NC(=O)CN1CCN(CCNC(=O)CN(C)C(=O)CN(C)C(=O)CN(C)C(=O)CN(C)C(=O)CN(C)C(=O)CN(C)C(=O)CC[C@H](NC(=O)CC[C@H](NC(=O)CC[C@H](NC(=O)CCCCCCCCCCCCCCCCC(=O)O)C(=O)O)C(=O)O)C(=O)O)CC1)C(=O)N[C@@H](CCCNC(=N)N)C(=O)N1CCC[C@H]1C(=O)N[C@@H](CCCNC(=N)N)C(=O)NCC(N)=O [Compound 68, C18DA-gGlu3-Sar6-AEPipAc-Tyr-Phe-NMeLeu-Nle-Arg-Pro-Arg-Gly-NH2] (HELM PEPTIDE1{[O=C(O)CCCCCCCCCCCCCCCCC(=O)[*:2]].[gGlu].[gGlu].[gGlu].[Sar].[Sar].[Sar].[Sar].[Sar].[Sar].[O=C(CN1CCN(CCN[*:1])CC1)[*:2]].Y.F.[meL].[Nle].R.P.R.G.[am]}$$$$V2.0) | 900 (≈ 0.389 mM) | 1.2 | 9.6 |  |  |  | 
CCCC[C@H](NC(=O)[C@H](CC(C)C)N(C)C(=O)[C@H](Cc1ccccc1)NC(=O)[C@H](Cc1ccc(O)cc1)NC(=O)CN1CCN(CCNC(=O)CN(C)C(=O)CN(C)C(=O)CN(C)C(=O)CN(C)C(=O)CN(C)C(=O)CN(C)C(=O)CN(C)C(=O)CN(C)C(=O)CN(C)C(=O)CC[C@H](NC(=O)CC[C@H](NC(=O)CC[C@H](NC(=O)CCCCCCCCCCCCCCCCC(=O)O)C(=O)O)C(=O)O)C(=O)O)CC1)C(=O)N[C@@H](CCCN)C(=O)N(C)[C@@H](C)C(=O)N[C@@H](CCCNC(=N)N)C(=O)NCC(N)=O [Compound 70, C18DA-gGlu3-Sar9-AEPipAc-Tyr-Phe-NMeLeu-Nle-Orn-NMeAla-Arg-Gly-NH2] (HELM PEPTIDE1{[O=C(O)CCCCCCCCCCCCCCCCC(=O)[*:2]].[gGlu].[gGlu].[gGlu].[Sar].[Sar].[Sar].[Sar].[Sar].[Sar].[Sar].[Sar].[Sar].[O=C(CN1CCN(CCN[*:1])CC1)[*:2]].Y.F.[meL].[Nle].[Orn].[meA].R.G.[am]}$$$$V2.0) |  | 2.5 | 27.2 | > 1000 | 8300 (≈ 3.36 mM) |  | 
CCCC[C@H](NC(=O)[C@H](CC(C)C)N(C)C(=O)[C@H](Cc1ccccc1)NC(=O)[C@H](Cc1ccc(O)cc1)NC(=O)CN1CCN(CCNC(=O)CN(C)C(=O)CN(C)C(=O)CN(C)C(=O)CN(C)C(=O)CN(C)C(=O)CN(C)C(=O)CN(C)C(=O)CN(C)C(=O)CN(C)C(=O)CC[C@H](NC(=O)CC[C@H](NC(=O)CC[C@H](NC(=O)CCCCCCCCCCCCCCCCC(=O)O)C(=O)O)C(=O)O)C(=O)O)CC1)C(=O)N[C@@H](CCCNC(=N)N)C(=O)N1CCC[C@H]1C(=O)N[C@@H](CCCNC(=N)N)C(=O)NCC(N)=O [Compound 72, C18DA-gGlu3-Sar9-AEPipAc-Tyr-Phe-NMeLeu-Nle-Arg-Pro-Arg-Gly-NH2] (HELM PEPTIDE1{[O=C(O)CCCCCCCCCCCCCCCCC(=O)[*:2]].[gGlu].[gGlu].[gGlu].[Sar].[Sar].[Sar].[Sar].[Sar].[Sar].[Sar].[Sar].[Sar].[O=C(CN1CCN(CCN[*:1])CC1)[*:2]].Y.F.[meL].[Nle].R.P.R.G.[am]}$$$$V2.0) |  | 0.9 | 10.4 |  | 9600 (≈ 3.8 mM) |  | 
CCCCCCCCCCCCCCCCCC(=O)N[C@@H](CCC(=O)N[C@@H](CCC(=O)N[C@@H](CCC(=O)N(C)CC(=O)N(C)CC(=O)N(C)CC(=O)N(C)CC(=O)N(C)CC(=O)N(C)CC(=O)N(C)CC(=O)N(C)CC(=O)N(C)CC(=O)N(C)CC(=O)N(C)CC(=O)N(C)CC(=O)N(C)CC(=O)N(C)CC(=O)N(C)CC(=O)NCCN1CCN(CC(=O)N[C@@H](Cc2ccc(O)cc2)C(=O)N[C@@H](Cc2ccccc2)C(=O)N(C)[C@@H](CC(C)C)C(=O)N[C@@H](CCCC)C(=O)N[C@@H](CCCNC(=N)N)C(=O)N2CCC[C@H]2C(=O)N[C@@H](CCCNC(=N)N)C(=O)NCC(N)=O)CC1)C(=O)O)C(=O)O)C(=O)O [Ref. 1, C18A-gGlu3-Sar15-AEPipAc-Tyr-Phe-NMeLeu-Nle-Arg-Pro-Arg-Gly-NH2, reference compound] (HELM PEPTIDE1{[CCCCCCCCCCCCCCCCCC(=O)[*:2]].[gGlu].[gGlu].[gGlu].[Sar].[Sar].[Sar].[Sar].[Sar].[Sar].[Sar].[Sar].[Sar].[Sar].[Sar].[Sar].[Sar].[Sar].[Sar].[O=C(CN1CCN(CCN[*:1])CC1)[*:2]].Y.F.[meL].[Nle].R.P.R.G.[am]}$$$$V2.0) |  |  |  |  |  | 0.8 | 4.3
CCCC[C@H](NC(=O)[C@H](CC(C)C)N(C)C(=O)[C@H](Cc1ccccc1)NC(=O)[C@H](Cc1ccc(O)cc1)NC(=O)CN1CCN(CCNC(=O)CN(C)C(=O)CN(C)C(=O)CN(C)C(=O)CN(C)C(=O)CN(C)C(=O)CN(C)C(=O)CN(C)C(=O)CN(C)C(=O)CN(C)C(=O)CN(C)C(=O)CN(C)C(=O)CN(C)C(=O)CN(C)C(=O)CN(C)C(=O)CN(C)C(=O)CC[C@H](NC(=O)CC[C@H](NC(=O)CC[C@H](NC(=O)CCCCCCCCCCCCCCCCC(=O)O)C(=O)O)C(=O)O)C(=O)O)CC1)C(=O)N[C@@H](CCCNC(=N)N)C(=O)N1CCC[C@H]1C(=O)N[C@@H](CCCNC(=N)N)C(=O)NCC(N)=O [Ref. 2, C18DA-gGlu3-Sar15-AEPipAc-Tyr-Phe-Leu-Nle-Arg-Pro-Arg-Gly-NH2, reference compound] (HELM PEPTIDE1{[O=C(O)CCCCCCCCCCCCCCCCC(=O)[*:2]].[gGlu].[gGlu].[gGlu].[Sar].[Sar].[Sar].[Sar].[Sar].[Sar].[Sar].[Sar].[Sar].[Sar].[Sar].[Sar].[Sar].[Sar].[Sar].[O=C(CN1CCN(CCN[*:1])CC1)[*:2]].Y.F.[meL].[Nle].R.P.R.G.[am]}$$$$V2.0) |  |  |  |  |  | 7.9 | 
CCCCCCCCCCCCCCCCCCCC(=O)N[C@@H](CCC(=O)N[C@@H](CCC(=O)N[C@@H](CCC(=O)N(C)CC(=O)N(C)CC(=O)N(C)CC(=O)N(C)CC(=O)N(C)CC(=O)N(C)CC(=O)N(C)CC(=O)N(C)CC(=O)N(C)CC(=O)N(C)CC(=O)N(C)CC(=O)N(C)CC(=O)N(C)CC(=O)N(C)CC(=O)N(C)CC(=O)NCCN1CCN(CC(=O)N[C@@H](Cc2ccc(O)cc2)C(=O)N[C@@H](Cc2ccccc2)C(=O)N(C)[C@@H](CC(C)C)C(=O)N[C@@H](CCCC)C(=O)N[C@@H](CCCNC(=N)N)C(=O)N2CCC[C@H]2C(=O)N[C@@H](CCCNC(=N)N)C(=O)NCC(N)=O)CC1)C(=O)O)C(=O)O)C(=O)O [Ref. 3, C20A-gGlu3-Sar15-AEPipAc-Tyr-Phe-NMeLeu-Nle-Orn-Pro-Arg-Gly-NH2, reference compound] (HELM PEPTIDE1{[CCCCCCCCCCCCCCCCCCCC(=O)[*:2]].[gGlu].[gGlu].[gGlu].[Sar].[Sar].[Sar].[Sar].[Sar].[Sar].[Sar].[Sar].[Sar].[Sar].[Sar].[Sar].[Sar].[Sar].[Sar].[O=C(CN1CCN(CCN[*:1])CC1)[*:2]].Y.F.[meL].[Nle].R.P.R.G.[am]}$$$$V2.0) |  |  |  |  |  | 1.7 | 6.1
